In ChEMBL document CHEMBL3400057, “Discovery of DS-5272 as a promising candidate: A potent and orally active p53-MDM2 interaction inhibitor” (Bioorg Med Chem, 2015):
≈ marks a conversion by molar mass, not a printed value. Calls of active or inactive are those of the source. No cut-off for these calls is given here.

What was measured:
[1] = Antiproliferative activity against human DLD1 cells expressing mutant p53 after 3 days by luminescent cell viability assay; assay type: cell-based, DLD-1
[2] = Solubility in phosphate buffer at 10 mM at pH 6.8 by HPLC analysis; assay type: physicochemical
[3] = Metabolic stability in mouse hepatic microsome assessed as compound remaining measured at 1 uM after 30 mins by LC-MS/MS analysis; assay type: ADME; details: liver microsomes, read-out: Stability
[4] = tested on: SJSA-1; test: Antiproliferative activity against human SJSA1 cells expressing wildtype p53 after 3 days by luminescent cell viability assay; assay type: functional; details: SJSA-1, 72 h
[5] = Plasma concentration in mouse at 100 mg/kg, po after 19 hrs; assay type: ADME, organism-based; design: dose 100 mg/kg, route oral
[6] = tested on: SJSA-1; test: Antitumor activity against human SJSA1 cells xenografted in BALB/c SLc-nu/nu mouse assessed as increase in p53 accumulation in tumor at 25 to 100 mg/kg, po single dose by Western blot analysis; assay type: functional, organism-based
[7] = Plasma concentration in mouse at 50 mg/kg, po after 24 hrs; assay type: ADME, organism-based; design: dose 50 mg/kg, route oral
[8] = Cmax in mouse at 50 mg/kg, po; assay type: ADME, organism-based; design: dose 50 mg/kg, route oral; details: in vivo
[9] = tested on: Mus musculus; test: Toxicity in human SJSA1 cells xenografted in BALB/c SLc-nu/nu mouse assessed as body weight loss at 100 mg/kg, po compound administered from day 17 to 20 (qdx4) measured on day 25 (reference value: <0%); assay type: organism-based, SJSA-1; design: dose 100 mg/kg, route oral; details: in vivo
[10] = tested on: SJSA-1; test: Antitumor activity against human SJSA1 cells xenografted in BALB/c SLc-nu/nu mouse assessed as increase in p21 accumulation in tumor at 12.5 mg/kg, po single dose by Western blot analysis; assay type: functional, organism-based; design: dose 12.5 mg/kg
[11] = Cmax in mouse at 100 mg/kg, po; assay type: ADME, organism-based; design: dose 100 mg/kg, route oral; details: in vivo
[12] = Plasma concentration in mouse at 25 mg/kg, po after 6 hrs; assay type: ADME, organism-based; design: dose 25 mg/kg, route oral
[13] = AUC in mouse plasma at 25 mg/kg, po; assay type: ADME, organism-based; design: dose 25 mg/kg, route oral
[14] = tested on: SJSA-1; test: Antitumor activity against human SJSA1 cells xenografted in BALB/c SLc-nu/nu mouse assessed as tumor growth inhibition at 25 mg/kg, po compound administered from day 17 to 20 (qdx4) measured on day 25 (reference value: 0%); assay type: functional; details: read-out: TGI
[15] = tested on: SJSA-1; test: Induction of apoptosis in human SJSA1 cells xenografted in BALB/c SLc-nu/nu mouse assessed as PARP cleavage in tumor at 12.5 mg/kg, po single dose by Western blot analysis; assay type: functional, organism-based; design: dose 12.5 mg/kg
[16] = Plasma concentration in mouse at 50 mg/kg, po after 3 hrs; assay type: ADME, organism-based; design: dose 50 mg/kg, route oral
[17] = tested on: Mus musculus; test: Toxicity in human SJSA1 cells xenografted in BALB/c SLc-nu/nu mouse assessed as body weight loss at 50 mg/kg, po compound administered from day 17 to 20 (qdx4) measured on day 25 (reference value: <0%); assay type: organism-based, SJSA-1; design: dose 50 mg/kg, route oral; details: in vivo
[18] = Plasma concentration in mouse at 50 mg/kg, po after 19 hrs; assay type: ADME, organism-based; design: dose 50 mg/kg, route oral
[19] = Plasma concentration in mouse at 50 mg/kg, po after 6 hrs; assay type: ADME, organism-based; design: dose 50 mg/kg, route oral
[20] = Cmax in mouse at 25 mg/kg, po; assay type: ADME, organism-based; design: dose 25 mg/kg, route oral; details: in vivo
[21] = AUC in mouse plasma at 50 mg/kg, po; assay type: ADME, organism-based; design: dose 50 mg/kg, route oral
[22] = tested on: SJSA-1; test: Antitumor activity against human SJSA1 cells xenografted in BALB/c SLc-nu/nu mouse assessed as tumor growth inhibition at 12.5 mg/kg, po compound administered from day 17 to 20 (qdx4) measured on day 25 (reference value: 0%); assay type: functional; details: read-out: TGI
[23] = tested on: Mus musculus; test: Toxicity in human SJSA1 cells xenografted in BALB/c SLc-nu/nu mouse assessed as body weight loss at 25 mg/kg, po compound administered from day 17 to 20 (qdx4) measured on day 25 (reference value: <0%); assay type: organism-based, SJSA-1; design: dose 25 mg/kg, route oral; details: in vivo
[24] = tested on: SJSA-1; test: Antitumor activity against human SJSA1 cells xenografted in BALB/c SLc-nu/nu mouse assessed as tumor growth inhibition at 100 mg/kg, po compound administered from day 17 to 20 (qdx4) measured on day 25 (reference value: 0%); assay type: functional; details: read-out: TGI
[25] = Plasma concentration in mouse at 100 mg/kg, po after 3 hrs; assay type: ADME, organism-based; design: dose 100 mg/kg, route oral
[26] = Plasma concentration in mouse at 100 mg/kg, po after 24 hrs; assay type: ADME, organism-based; design: dose 100 mg/kg, route oral
[27] = AUC in mouse plasma at 100 mg/kg, po; assay type: ADME, organism-based; design: dose 100 mg/kg, route oral
[28] = Plasma concentration in mouse at 100 mg/kg, po after 6 hrs; assay type: ADME, organism-based; design: dose 100 mg/kg, route oral
[29] = Plasma concentration in mouse at 25 mg/kg, po after 3 hrs; assay type: ADME, organism-based; design: dose 25 mg/kg, route oral
[30] = tested on: SJSA-1; test: Antitumor activity against human SJSA1 cells xenografted in BALB/c SLc-nu/nu mouse assessed as increase in Mdm2 accumulation in tumor at 12.5 mg/kg, po single dose by Western blot analysis; assay type: functional, organism-based; design: dose 12.5 mg/kg
[31] = tested on: Mus musculus; test: Toxicity in human SJSA1 cells xenografted in BALB/c SLc-nu/nu mouse assessed as body weight loss at 12.5 mg/kg, po compound administered from day 17 to 20 (qdx4) measured on day 25 (reference value: <0%); assay type: organism-based, SJSA-1; design: dose 12.5 mg/kg, route oral; details: in vivo
[32] = tested on: SJSA-1; test: Antitumor activity against human SJSA1 cells xenografted in BALB/c SLc-nu/nu mouse assessed as tumor growth inhibition at 50 mg/kg, po compound administered from day 17 to 20 (qdx4) measured on day 25 (reference value: 0%); assay type: functional; details: read-out: TGI

## CC(C)C1=C(C(=O)N2[C@H](C)CC[C@H]2C(=O)N2CC3(CC3)NC[C@@H]2C)SC2=N[C@@](C)(c3ccc(Cl)nc3)[C@@H](c3ccc(Cl)c(F)c3)N21
[1]
  GI50 at 72 h: > 50000 nM
[2]
  solubility: 720 µg/mL (≈ 1050 µM)
[3]
  remaining at 0.5 h, 1 µM: 100%
[4]
  GI50: 240 nM

## CC[C@@H]1CNC2(CC2)CN1C(=O)[C@@H]1C[C@@H](F)CN1C(=O)C1=C(C(C)C)N2C(=N[C@@](C)(c3ccc(Cl)nc3)[C@H]2c2ccc(Cl)c(F)c2)S1
[5]
  concentration at 19 h: 160 ng/mL
[1]
  GI50 at 72 h: > 50000 nM
[6]
  Activity: Active
[7]
  concentration at 24 h: 20 ng/mL
[8]
  Cmax: 15900 ng/mL
[9]
  Activity: 1.2%
[10]
  Activity: Active
[11]
  Cmax: 26100 ng/mL
[12]
  concentration at 6 h: 3600 ng/mL
[13]
  AUC: 47.1 µg·h/mL
[14]
  inhibition in vivo at 25 mg/kg: 72.3%
[15]
  Activity: Active
[16]
  concentration at 3 h: 15900 ng/mL
[17]
  Activity: 0.7%
[18]
  concentration at 19 h: 10 ng/mL
[19]
  concentration at 6 h: 12400 ng/mL
[20]
  Cmax: 6000 ng/mL
[21]
  AUC: 147 µg·h/mL
[22]
  inhibition in vivo at 12.5 mg/kg: 29.7%
[23]
  Activity: 0.2%
[2]
  solubility: 420 µg/mL (≈ 597 µM)
[24]
  inhibition in vivo at 100 mg/kg: 96.6%
[25]
  concentration at 3 h: 26100 ng/mL
[26]
  concentration at 24 h: 10 ng/mL
[27]
  AUC: 259 µg·h/mL
[28]
  concentration at 6 h: 22300 ng/mL
[29]
  concentration at 3 h: 6000 ng/mL
[30]
  Activity: Active
[3]
  remaining at 0.5 h, 1 µM: 84%
[4]
  GI50: 170 nM
[31]
  Activity: 0.2%
[32]
  inhibition in vivo at 50 mg/kg: 93.7%

## CC(C)C1=C(C(=O)N2[C@H](C)CC[C@H]2C(=O)N2CCNC3(CC3)C2)SC2=N[C@@](C)(c3ccc(Cl)cc3)[C@@H](c3ccc(Cl)cc3)N21
[1]
  GI50 at 72 h: 16200 nM
[2]
  solubility: 56 µg/mL (≈ 85.8 µM)
[3]
  remaining at 0.5 h, 1 µM: 87%
[4]
  GI50: 650 nM

## CC(C)C1=C(C(=O)N2[C@H](C)CC[C@H]2C(=O)N2CCN(C)[C@H](C)C2)SC2=N[C@@](C)(c3ccc(Cl)cc3)[C@@H](c3ccc(Cl)cc3)N21
[3]
  remaining at 0.5 h, 1 µM: 74%
[4]
  GI50: 850 nM

## CC(C)C1=C(C(=O)N2[C@H](C)CC[C@H]2C(=O)N2CCNC3(CC3)C2)SC2=N[C@@](C)(c3ccc(Cl)nc3)[C@@H](c3ccc(Cl)c(F)c3)N21
[1]
  GI50 at 72 h: > 50000 nM
[2]
  solubility: 330 µg/mL (≈ 491 µM)
[3]
  remaining at 0.5 h, 1 µM: 80%
[4]
  GI50: 660 nM

## CC(C)C1=C(C(=O)N2C[C@H](F)C[C@H]2C(=O)N2CC3(CC3)NC[C@@H]2C)SC2=N[C@@](C)(c3ccc(Cl)nc3)[C@@H](c3ccc(Cl)c(F)c3)N21
[1]
  GI50 at 72 h: > 50000 nM
[2]
  solubility: 640 µg/mL (≈ 928 µM)
[3]
  remaining at 0.5 h, 1 µM: 79%
[4]
  GI50: 26 nM

## CC(C)C1=C(C(=O)N2[C@H](C)CC[C@H]2C(=O)N2CCN(C)C3(CC3)C2)SC2=N[C@@](C)(c3ccc(Cl)cc3)[C@@H](c3ccc(Cl)cc3)N21
[1]
  GI50 at 72 h: 17200 nM
[2]
  solubility: 38 µg/mL (≈ 57 µM)
[3]
  remaining at 0.5 h, 1 µM: 41%
[4]
  GI50: 1080 nM

## CC(C)C1=C(C(=O)N2[C@H](C)CC[C@H]2C(=O)N2CCNC3(CC3)C2)SC2=N[C@@](C)(c3ccc(Cl)cc3)[C@@H](c3ccc(Cl)c(F)c3)N21
[1]
  GI50 at 72 h: 16700 nM
[2]
  solubility: 51 µg/mL (≈ 76 µM)
[3]
  remaining at 0.5 h, 1 µM: 85%
[4]
  GI50: 350 nM
